One series concerns human hepatocytes (HH). In words: in vitro. The method, then:
(§1) Cryopreserved HH prepared from a mixed-gender pool of twenty donors (product X008000, lot EEO, BIOIVT), ten-donors (product S01205, lot MTJ, BIOIVT), ten donors (product S01205 lot LYB, BIOIVT) were utilised in the experiments. Cryopreserved HH were rapidly thawed in a water bath set at 37 °C and added to Leibovitz media that had been pre-warmed in the water bath. The suspension of cells was mixed gently and centrifuged at 40 × g for 4 min at room temperature. Excess media was removed, and the cells were re-suspended in 5 mL of fresh Leibovitz media. The cells were counted using an automated cell counter (Cellometer).

A further series is described as follows: in vitro. To be noted: human, hepatocytes. The method, then: as §1
Series [1] can be described thus: CLint in NADPH-supplemented human liver microsomes. To be noted: for HLM/HH (ratio of scaled CLint,u): NADPH-HLM average over HH average; for CLint scaled at 1 µM / microsomal CLint at 1 µM: human; for microsomal CLint at 1 µM: pH 7.4. The method, then:
(§2) Calculation and scaling of CLint,u was done using the equation below and 45 mg of microsomal protein per gram of liver. HLMCLint,u=ln2/x1/t1/2(min)xmLincubation/mgmicrosomalproteinx45mgmicrosomalprotein/gliverx21gliver/kg/Fuinc
A general note: Microsomes from liver hold many membrane-bound enzymes, among them those of drug oxidation.

A short description of series [2]: Intrinsic permeability in Caco-2 cells with efflux inhibited. To be noted: human, Caco-2. A general note: Caco-2 monolayers are a common model of the intestinal barrier.
A short description of series [3]: LogD pH 7.4, octanol/phosphate buffer. The following applies: for logD: octanol/phosphate buffer, pH 7.4.
Series [4] can be described thus: Free fraction in HLM incubation, equilibrium dialysis. Type of series: in vitro ADME, human. To be noted: fraction unbound, measured or estimated by in silico models of Fuinc.
The next series concerns rat hepatocytes. In words: Free fraction in rat hepatocytes as surrogate for HH, equilibrium dialysis. Type of series: in vitro ADME. The following applies: fraction unbound, measured or estimated by in silico models of Fuinc.
A short description of series [5]: CLint in NADH-supplemented human liver microsomes. To be noted: for microsomal CLint at 1 µM / CLint scaled at 1 µM: human, pH 7.4; for microsomal CLint at 1 µM: human liver microsomes + NADH. The method, then: as §2
The test system of another series is Caco-2 cells. In words: Intrinsic permeability in Caco-2 cells with efflux inhibited. The following applies: intrinsic (passive) permeability, at least one determination.
[6] abbreviates: HH, individual determinations 1-3, Fig. 1.
[7] abbreviates: Scaled HH CLint,u average, HH, average, Fig. 1.
[8] abbreviates: Scaled HH CLint,u, HH, individual determinations 1-3, Fig. 1.
[9] abbreviates: NADPH-HLM, individual determinations 1-3, Fig. 1.
The mark [10] stands for this setting: human liver microsomes + NADPH, pH 7.4, Scaled HLM CLint,u, NADPH-HLM, individual determinations 1-3, Fig. 1.
The mark [11] stands for this setting: human liver microsomes, pH 7.4, Scaled HLM CLint,u average, NADPH-HLM, average, Fig. 1.
[12] abbreviates: human liver microsomes, pH 7.4, NADPH_HLM_scaled_CLint,u, Fig. 4a,d.
Setting [13] is: 1 µM, single determination, Fig. 4a,d.

“And” between values parts separate entries of the source, which are not always exact repeats. Equal entries are not always repeated.

Usually CLint scaled stands for the capacity of the preparation to metabolise the compound, expressed as a volume cleared per time. In general, Papp refers to the rate of passage across a membrane or cell layer, normalised by area and donor concentration. Read a high Papp as fast passage. The term hepatocyte CLint denotes the capacity of the preparation to metabolise the compound, expressed as a volume cleared per time. Higher therefore signals faster metabolism. A word on the logD: it is the decadic logarithm of the distribution of all forms, ionised or not, between an organic phase and buffer at a given pH. Lower therefore signals a more hydrophilic compound. Broadly, the microsomal CLint is the capacity of the preparation to metabolise the compound, expressed as a volume cleared per time.

Consider `C[C@]12C=CC(=O)C=C1CC[C@@H]1[C@@H]2C(=O)C[C@@]2(C)[C@H]1CC[C@]2(O)C(=O)CO` [Prednisone], for which, in the series on human hepatocytes (HH) (setting [6]), the “Scaled HH CLint,u” value is 43.6458 mL/min/kg and 52.3108 mL/min/kg. Moreover, the intrinsic metabolic clearance (CLint scaled) in the series “in vitro” (setting [7]) is 56.3 mL/min/kg; in “in vitro” (setting [8]) it was 72.8 mL/min/kg. In [1] (Fig. 1), the “HLM/HH (ratio of scaled CLint,u)” value came out at 0.4866. The “Scaled HLM CLint,u” value in [1] (setting [9]) was 26.9421 mL/min/kg and 25.4228 mL/min/kg. Moreover, the values for the CLint scaled at 1 µM in series [1] (setting [10]) and in [1] (setting [11]) were 29.8 mL/min/kg and 27.4 mL/min/kg, respectively.
The molecule `CCN(C(=O)c1cc(F)ccc1Oc1cncnc1N1CC2(CCN(C[C@H]3CC[C@H](NS(=O)(=O)CC)CC3)CC2)C1)C(C)C` [Revumenib] showed a Papp at 2 h, 10 µM in [2] of 1.65 ×10⁻⁶ cm/s. For the same molecule, the hepatocyte CLint at 1 µM in the series “in vitro” (both) stood at 2.92 µL/min/1e6 cells. Moreover, the CLint scaled at 1 µM in “in vitro” (HH_scaled_CLint,u) is 10.2 mL/min/kg; in series [1] (setting [12]), 186 mL/min/kg; in [5] (human liver microsomes), 40.2 mL/min/kg. Further, the logD in series [3] turned out to be 1.41. Further, in [4], the fu_HLM is recorded as 0.819. Moreover, the microsomal CLint at 1 µM was determined as 161 µL/min/mg in series [1] (human liver microsomes + NADPH) and 34.9 µL/min/mg in [5]. In the series on rat hepatocytes, the fu_ratHH is 0.721.
`CCCc1nn(C)c2c(=O)[nH]c(-c3cc(S(=O)(=O)N4CCN(C)CC4)ccc3OCC)nc12` [Sildenafil] yielded a Papp at 2 h, 10 µM in [2] of 66 ×10⁻⁶ cm/s. The molecule further had a hepatocyte CLint in “in vitro” (both) of 14.5 µL/min/1e6 cells. The CLint scaled in the series “in vitro” (HH_scaled_CLint,u, Fig. 4a) was determined as 57.7 mL/min/kg. In series [3], this molecule yielded a logD of 2.74. Moreover, in series [4], the fu_HLM is reported as 0.638. Also, the microsomal CLint at 1 µM in series [1] (human liver microsomes + NADPH) turned out to be 134 µL/min/mg; in series [5], 29.1 µL/min/mg. In addition, the results for the intrinsic clearance (CLint scaled) at 1 µM in series [1] (setting [12]) and in series [5] (human liver microsomes) were 199 mL/min/kg and 43.1 mL/min/kg, respectively. Further, in the series with rat hepatocytes, the fu_ratHH is reported as 0.633.
`C[C@]12CC[C@H]3[C@@H](CCC4=CC(=O)CC[C@@]43C)[C@@H]1CC[C@@H]2O` [Testosterone]: the “Scaled HH CLint,u” value in the series with human hepatocytes (HH) (setting [6]) was 1005.17 mL/min/kg and 1161.02 mL/min/kg. Moreover, the CLint scaled in the series “in vitro” (setting [7]) turned out to be 1320 mL/min/kg; in the series “in vitro” (setting [8]) it was 1780 mL/min/kg. Further, the “Scaled HLM CLint,u” value in series [1] (setting [9]) was 250.062 mL/min/kg and 237.027 mL/min/kg. Moreover, the CLint scaled at 1 µM in [1] (microsomes, pH 7.4, Scaled HLM CLint,u average, NADPH-HLM, average, Fig. 1) was determined as 246 mL/min/kg; in series [1] (microsomes, pH 7.4, Scaled HLM CLint,u, NADPH-HLM, individual determinations 1-3, Fig. 1) it was 251 mL/min/kg.
As to `CCC1=C[C@@H]2CN(C1)Cc1c([nH]c3ccccc13)[C@@](C(=O)OC)(c1cc3c(cc1OC)N(C)[C@H]1[C@@](O)(C(=O)OC)[C@H](OC(C)=O)[C@]4(CC)C=CCN5CC[C@]31[C@@H]54)C2` [Vinorelbin], the “Scaled HH CLint,u” value with human hepatocytes (HH) (human, hepatocytes, 1 µM) was found to be 48.4191 mL/min/kg. For the same molecule, the CLint scaled at 1 µM in the series “in vitro” (Scaled HH CLint,u) is 38.9 mL/min/kg; in “in vitro” (Scaled HH CLint,u average), 43.6 mL/min/kg; in [1] (setting [10]), 436 mL/min/kg; in series [1] (setting [11]), 598 mL/min/kg. In addition, the “HLM/HH (ratio of scaled CLint,u)” value in series [1] (Fig. 1) is on record as 13.7107. In series [1] (setting [9]), the “Scaled HLM CLint,u” value is 640.935 mL/min/kg and 717.808 mL/min/kg.
Consider `CC[C@@H]1[C@H](F)C(=O)N[C@@H]1COc1nccc2cc(C(N)=O)c(OC)cc12` [Zimlovisertib], for which the Papp at 2 h, 10 µM in series [2] came out at 31.7 ×10⁻⁶ cm/s. In addition, the hepatocyte CLint in the series “in vitro” (both, HH_CLint, 1 µM, single determination, Fig. 4a) worked out at 5.84 µL/min/1e6 cells. In addition, the CLint scaled in “in vitro” (HH_scaled_CLint,u, Fig. 4a) is 18 mL/min/kg. The logD in series [3] was 1.98. The fu_HLM in [4] is on record as 0.817. The CLint scaled at 1 µM in [1] (microsomes, pH 7.4, NADPH_HLM_scaled_CLint,u) amounted to 46.5 mL/min/kg; in series [5] (microsomes), 8.09 mL/min/kg. The fu_ratHH with rat hepatocytes is on record as 0.817.
As for `C[C@]12CCC(=O)C=C1CC[C@@H]1[C@@H]2[C@@H](O)C[C@@]2(C)[C@H]1CC[C@]2(O)C(=O)CO` [hydrocortisone], the “Scaled HH CLint,u” value in the series on human hepatocytes (HH) (setting [6]) was 16.444 mL/min/kg and 19.1349 mL/min/kg. Besides, the CLint scaled in the series “in vitro” (setting [7]) came out at 19.3 mL/min/kg; in the series “in vitro” (setting [8]) it was 22.4 mL/min/kg. In addition, in series [1] (Fig. 1), the “HLM/HH (ratio of scaled CLint,u)” value stood at 2.834. Also, in series [1] (setting [9]), the “Scaled HLM CLint,u” value was 57.5167 mL/min/kg and 51.9108 mL/min/kg. The CLint scaled at 1 µM is 54.9 mL/min/kg in series [1] (setting [10]) and 54.8 mL/min/kg in [1] (setting [11]).
AZ23: the “Caco-2 Papp” value in the series with Caco-2 cells is reported as 66.417 10-6 cm/s. Also, the HH_CLint in the series on human hepatocytes (HH) (1 µM, single determination, Fig. 4a) is reported as 3.309 uL/min/106 cells. Besides, the “HH_scaled_CLint,u” value in the series on human hepatocytes (HH) (Fig. 4a) was 14.4518 mL/min/kg. Also, the “LogD pH 7.4” value in [3] (at least one determination) came out at 3.08. Further, the fu_HLM in series [4] is 0.583. In [1] (setting [13]), the “HLM_NADPH CLint” value was found to be 56.607 µL/min/mg. Also, the “NADPH_HLM_scaled_CLint,u” value in series [1] (Fig. 4a,d) is 91.7558 mL/min/kg. Further, the fu_ratHH in the series on rat hepatocytes is reported as 0.577. Further, in series [5] (setting [13]), the “HLM_NADH CLint” value was found to be 6.34 µL/min/mg. Besides, the “NADH_HLM_scaled_CLint,u” value in series [5] (Fig. 4a,d) amounted to 10.2767 mL/min/kg.

(Values after paper PMC12592420, “A mismatch in enzyme-redox partnerships underlies divergent cytochrome P450 activities between human hepatocytes and microsomes” (Communications Biology, 2025).)
